Measurements: ChEMBL document CHEMBL1139817, “Synthesis and anti-inflammatory activity of 3-(4'-geranyloxy-3'-methoxyphenyl)-2-trans propenoic acid and its ester derivatives” (2007)

Test system: Mus musculus
Test: Antiinflammatory activity in CD1 mouse assessed as inhibition of croton oil-induced ear oedema at 0.3 umol/cm^2 after 6 hrs
Assay type: functional
Design: scale not given: the % may be the effect or the level left

Compound	Activity [%]
COc1cc(/C=C/C(=O)O)ccc1OC/C=C(\C)CCC=C(C)C	41
COC(=O)c1ccccc1OC(=O)/C=C/c1ccc(OC/C=C(\C)CCC=C(C)C)c(OC)c1	42
COc1cc(/C=C/C(=O)Oc2ccc3ccc(=O)oc3c2)ccc1OC/C=C(\C)CCC=C(C)C	38
COC(=O)/C=C/c1ccc(OC(=O)/C=C/c2ccc(OC/C=C(\C)CCC=C(C)C)c(OC)c2)c(OC)c1	43
COC(=O)c1ccc(OC(=O)/C=C/c2ccc(OC/C=C(\C)CCC=C(C)C)c(OC)c2)c(OC)c1	29
COc1cc(/C=C/C(=O)Oc2ccccc2OC)ccc1OC/C=C(\C)CCC=C(C)C	49
COc1cc(/C=C/C(=O)Oc2ccc3c(c2)C(=O)c2ccc(OC(=O)/C=C/c4ccc(OC/C=C(\C)CCC=C(C)C)c(OC)c4)cc2C3=O)ccc1OC/C=C(\C)CCC=C(C)C	43
COc1cc(/C=C/C(=O)OC2=CC(=O)c3ccccc3C2=O)ccc1OC/C=C(\C)CCC=C(C)C	43
COC(=O)/C=C/c1ccc(OC(=O)/C=C/c2ccc(OC/C=C(\C)CCC=C(C)C)c(OC)c2)c(OC(=O)/C=C/c2ccc(OC/C=C(\C)CCC=C(C)C)c(OC)c2)c1	38
COc1cc(/C=C/C(=O)Oc2ccc(OC(=O)/C=C/c3ccc(OC/C=C(\C)CCC=C(C)C)c(OC)c3)cc2)ccc1OC/C=C(\C)CCC=C(C)C	57
COc1cc(/C=C/C(=O)Oc2ccc(NC(C)=O)cc2)ccc1OC/C=C(\C)CCC=C(C)C	51
CC(=O)Nc1ccc(O)cc1 [ACETAMINOPHEN]	13
O=C1c2ccc(O)cc2C(=O)c2ccc(O)cc21 [ANTHRAFLAVICACID]	22
O=C(O)/C=C/c1ccc(O)c(O)c1 [CAFFEIC ACID]	6
COc1cc(/C=C/C(=O)O)ccc1O [FERULATE]	16
COc1ccccc1O [GUAIACOL]	10
Oc1ccc(O)cc1 [HYDROQUINONE]	4
COc1ccc2c(c1)c(CC(=O)O)c(C)n2C(=O)c1ccc(Cl)cc1 [INDOMETHACIN]	62
O=C1C=C(O)C(=O)c2ccccc21 [LAWSONE]	23
O=C1C[C@@H](c2ccc(O)cc2)Oc2cc(O)cc(O)c21 [NARINGENIN]	43
O=C(O)c1ccccc1O [SALICYLIC ACID]	13
O=c1ccc2ccc(O)cc2o1 [UMBELLIFERONE]	23
COc1cc(C(=O)O)ccc1O [VANILLIC ACID]	20
